According to patent US20050221359A1, “Cospeptin, cosmedin and their uses” (The Board of Trustees of the Leland Stanford Junior …, priority 2004, published 2005):
“Also recorded” adds a separate entry of the source.

Legend:
[1] = system: normal Sprague-Dawley rats; assay: Effects of cospeptin on blood pressure and heart rate (tail-cuff method); format: in vivo, rat; conditions: intraperitoneal administration, conscious normal rats
Protocol: Effects of cospeptin on blood pressure and heart rate in normal […] rats. Blood pressure measurements in conscious male Sprague-Dawley rats (7-9 weeks of age) were made in animals preadapted to the measurement procedure. Indirect systolic pressure was determined by a programmable NIBP system using the tail-cuff method (Columbus Instruments, Columbus, Ohio). Following attachment of the pressure transducer, rats were left undisturbed for 10 min before baseline measurements that spanned a 15-min interval. Following baseline measurements, rats were injected intraperitoneally with varying doses of hormones. Blood pressure and heart rate were monitored for 50 min at 25-sec intervals. Changes in blood pressure were calculated as the average of thirty measurements performed within each 5-min interval.

[2] = system: cospeptin receptors in the pituitary; assay: Displacement of 125I-Tyr0-cospeptin E binding in pituitary (competition studies); design: species or system rat; conditions: competition with 125I-Tyr0-cospeptin E
Protocol: (§1) Radiolabeling of cospeptin. Peptide iodination was performed according to the IODO-GEN procedure (Pierce, Upland, Ind.). The mixture of Tyr0-cospeptin E (20 μg) and 1 mCi [^125I] Nal was transferred to precoated IODO-GEN vials before incubation at room temperature for 4 min. The ^125I-labeled peptide was applied to a Sep-Pak C18 cartridge (Waters, Milford, Mass.) for purification and was eluted with 60% acetonitrile/0.1%TFA. The purified tracer was stored at −20° C.
(§2) Receptor binding experiments. Homogenates were prepared from different tissues of adult rats. Binding assays were performed in glass tubes. Routinely, tissue homogenates were incubated in 100 μl of binding buffer (PBS with 0.1% bovine serum albumin) for 16 h at room temperature with varying concentrations of ^125I-Tyr0-cospeptin E (100, 000 cpm˜2 nM) in the presence or absence of unlabelled Tyr0-cospeptin E (in 5,000 fold excess). After incubation, the tubes were centrifuged for 10 min at 10,000×g, and the pellet was washed twice in ice-cold PBS. Finally, Tyr0-cospeptin E bound to the tissues was counted using a gamma-spectrophotometer. Specifically bound counts were calculated by subtracting unspecific counts determined in the presence of 5,000-fold excess of nonlabeled peptide from total counts bound to the tissues. For displacement ^125I-Tyr0-cospeptin E binding, increasing concentrations of Tyr0-cospeptin E or other peptides or analogues (cospeptin E, cospeptin A, cospeptin B, cospeptin D, cospeptin F or cosmedin B) were added.

C57/BL6 male mice = assay: Effects of peptides on gastric emptying activity; format: in vivo, mouse; conditions: intraperitoneal injection, fed mice, stomach weighed after treatment
Protocol: Effects of peptides on gastric emptying activity Eight-week-old C57/BL6 male mice deprived of food for 20 h were given food pellets for 90 min before intraperitoneal injection with different hormones or saline. After treatment, mice were deprived of food again and killed 90 min later. The stomach was excised at the pylorus and cardia before weighing. Gastric emptying was calculated by comparing the stomach weight of treated mice to the stomach weight of control mice killed at the time of hormone injection. The rates of gastric emptying were calculated by the formula (wet weight of stomach in fed animals killed at 0 h minus wet weight at […] after treatment/wet weight of stomach in fed animals killed at 0 h)×100.

rat ileal tissue strips = assay: Ileum contraction assay (organ bath, ileal muscle strips); conditions: for muscle contraction of ileal strips: cumulative concentrations 10 nM to 10 μM; for magnitude of contraction relative to maximum response to muscarinic agonist 5-methylfurmethide: normalised to 5-methylfurmethide maximum
Protocol: Ileum contraction assay. Female rats (˜350 g) were euthanized with CO2 and the abdominal cavity was opened to expose the intestines. A 3-cm length of ileum was removed, cleared of any adhering tissue and longitudinal strips of ileal muscle (2×5 mm) were cut. On average, six preparations were obtained from each animal. The tissues were suspended in 20-ml organ baths containing Krebs-Henseleit solution maintained at 32° C. containing 2.5 mM Ca^2+ and gassed continuously with 95% O2/5% CO2. The tissues were placed under a loading tension of 1 g. The tissue was equilibrated for 90 min after which a dose response curve of the peptide of interest was obtained at 0.5 log unit cumulative incremental concentrations from 10 nM to 10 μM.

[3] = molecular target: cospeptin E receptor in pituitary tissues; assay: Saturation binding of 125I-Tyr0-cospeptin E to pituitary homogenate; conditions: saturation curve, rat pituitary gland
Protocol: as §1
as §2, with “For displacement ^125I-Tyr0-cospeptin E binding, increasing concentrations of Tyr0-cospeptin E or other peptides or analogues (cospeptin E, cospeptin A, cospeptin B, cospeptin D, cospeptin F or cosmedin B) were added.” left out

Substance	blood pressure [1]	heart rate [1]	order of affinity to the cospeptin receptors [2]	gastric emptying activity (C57/BL6 male mice)	further results
cospeptin A: human cospeptin Form A, SEQ ID NO: 6, FYPIYFRPLMRLEEYKKEQAINRAGIVQEDVQPPGLKVWSDPFG (KRNWTPQAMLYLKGAQGHRFISDQSRRK)	minimal effects	decreased heart rate	cospeptin E=Tyr0-cospeptin E>cospeptin A,B>>cospeptin F>>cosmedin	–	–
cospeptin B: human cospeptin Form B, SEQ ID NO: 7, PLMRLEEYKKEQAINRAGIVQEDVQPPGLKVWSDPFG (KRNWTPQAMLYLKGAQGRRFLSDQSRRK)	suppressed blood pressure	–	cospeptin E=Tyr0-cospeptin E>cospeptin A,B>>cospeptin F>>cosmedin	exhibited gastric emptying activities; also recorded: effectively inhibits gastric emptying	–
cospeptin F: human cospeptin Form F, SEQ ID NO: 11, VWSDPFG (FYPIYFRPLLRLEEYQKEQAVNRAGIVQEDVQPPGLKVWSDPFGRK; rat)	–	–	cospeptin E=Tyr0-cospeptin E>cospeptin A,B>>cospeptin F>>cosmedin	–	–
human cosmedin Form B, SEQ ID NO: 4, NWTPQAMLYLKGAQG; presumed amidated at carboxyl terminus [cosmedin B]	–	–	cospeptin E=Tyr0-cospeptin E>cospeptin A,B>>cospeptin F>>cosmedin	effectively inhibits gastric emptying	muscle contraction of ileal strips (rat ileal tissue strips): concentration dependent muscle contraction; muscle contraction of ileal strips (rat ileal tissue strips; listed as cosmedin-B): produced a concentration-dependent muscle contraction; also recorded: direct action of cosmedin-B on muscle contraction; magnitude of contraction relative to maximum response to muscarinic agonist 5-methylfurmethide (rat ileal tissue strips): comparable to that of the acetylcholine muscarinic receptor agonist 5-methylfurmethide; magnitude of contraction relative to maximum response to muscarinic agonist 5-methylfurmethide (rat ileal tissue strips; listed as cosmedin-B): comparable to that mediated by the muscarinic receptor stimulation; potency pA50 (rat ileal tissue strips; rat ileal tissue strips): 6.05±0.17; gastric emptying activity (C57/BL6 male mice; listed as cosmedin-B): suppressed gastric emptying activity in a dose-dependent manner
human cospeptin Form E, SEQ ID NO: 10, AGIVQEDVQPPGLKVWSDPFG [cospeptin E]	suppressed blood pressure	decreased heart rate	cospeptin E=Tyr0-cospeptin E>cospeptin A,B>>cospeptin F>>cosmedin	–	Kd [3]: 5 nM
